{"source": "the supplement of paper PMC10307832", "assay_in_all_cases": "relative viability (nuclei count vs DMSO), 5 days (fraction); higher = more cells survive", "key": {"[1]": {"compound": "CN(C)C/C=C/C(=O)Nc1cc2c(Nc3ccc(F)c(Cl)c3)ncnc2cc1O[C@H]1CCOC1 [Afatinib] + NC(=O)Nc1cc(-c2cccc(F)c2)sc1C(=O)N[C@H]1CCCNC1 [AZD7762] (partner 0.2 µM)", "method_in_brief": "(§1)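 Each reported value is a median over duplicate plates. It expresses relative viability: treated-well nuclei count divided by vehicle-well nuclei count. Lung cancer cell lines in 1536-well plates were dosed by pin tool a day after seeding, alone with one drug or with a fixed anchor-drug dose plus five library-drug doses (not always all listed) in √10 steps, and nuclei were counted after 5 days.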"}, "[2]": {"compound": "CN(C)C/C=C/C(=O)Nc1cc2c(Nc3ccc(F)c(Cl)c3)ncnc2cc1O[C@H]1CCOC1 [Afatinib] + Nc1nc2[nH]cc(CCc3ccc(C(=O)N[C@@H](CCC(=O)O)C(=O)O)cc3)c2c(=O)[nH]1 [Pemetrexed] (partner 0.2 µM)", "method_in_brief": "as §1"}, "[3]": {"compound": "CN(C)C/C=C/C(=O)Nc1cc2c(Nc3ccc(F)c(Cl)c3)ncnc2cc1O[C@H]1CCOC1 [Afatinib] + COc1cccc2cc(-c3nc([C@H]4CC[C@H](C(=O)O)CC4)n4ncnc(N)c34)[nH]c12 [OSI-027] (partner 0.5 µM)", "method_in_brief": "as §1"}, "[4]": {"compound": "CN(C)C/C=C/C(=O)Nc1cc2c(Nc3ccc(F)c(Cl)c3)ncnc2cc1O[C@H]1CCOC1 [Afatinib] + COc1cc2c(Oc3ccc(NC(=O)C4(C(=O)Nc5ccc(F)cc5)CC4)cc3F)ccnc2cc1OCCCN1CCOCC1 [Foretinib] (partner 0.25 µM)", "method_in_brief": "as §1"}}}
{"cell line": "HCC-44", "values": [{"measurement": "relative viability", "setting": "[1]; first compound 0.005 µM", "result": 0.98}, {"measurement": "relative viability", "setting": "[1]; first compound 0.01581 µM", "result": 0.973}, {"measurement": "relative viability", "setting": "[1]; first compound 0.05 µM", "result": 1.07}, {"measurement": "relative viability", "setting": "[1]; first compound 0.1581 µM", "result": 1}, {"measurement": "relative viability", "setting": "[1]; first compound 0.5 µM", "result": 0.959}, {"measurement": "relative viability", "setting": "[2]; first compound 0.005 µM", "result": 0.654}, {"measurement": "relative viability", "setting": "[2]; first compound 0.01581 µM", "result": 0.645}, {"measurement": "relative viability", "setting": "[2]; first compound 0.05 µM", "result": 0.733}, {"measurement": "relative viability", "setting": "[2]; first compound 0.1581 µM", "result": 0.657}, {"measurement": "relative viability", "setting": "[2]; first compound 0.5 µM", "result": 0.661}, {"measurement": "relative viability", "setting": "[3]; first compound 0.005 µM", "result": 0.588}, {"measurement": "relative viability", "setting": "[3]; first compound 0.01581 µM", "result": 0.446}, {"measurement": "relative viability", "setting": "[3]; first compound 0.05 µM", "result": 0.521}, {"measurement": "relative viability", "setting": "[3]; first compound 0.1581 µM", "result": 0.542}, {"measurement": "relative viability", "setting": "[3]; first compound 0.5 µM", "result": 0.431}]}
{"cell line": "NCI-H2228", "values": [{"measurement": "relative viability", "setting": "[2]; first compound 0.005 µM", "result": 0.283}, {"measurement": "relative viability", "setting": "[2]; first compound 0.01581 µM", "result": 0.306}, {"measurement": "relative viability", "setting": "[2]; first compound 0.05 µM", "result": 0.334}, {"measurement": "relative viability", "setting": "[2]; first compound 0.1581 µM", "result": 0.298}, {"measurement": "relative viability", "setting": "[2]; first compound 0.5 µM", "result": 0.322}, {"measurement": "relative viability", "setting": "[3]; first compound 0.005 µM", "result": 0.546}, {"measurement": "relative viability", "setting": "[3]; first compound 0.01581 µM", "result": 0.418}, {"measurement": "relative viability", "setting": "[3]; first compound 0.05 µM", "result": 0.589}, {"measurement": "relative viability", "setting": "[3]; first compound 0.1581 µM", "result": 0.638}, {"measurement": "relative viability", "setting": "[3]; first compound 0.5 µM", "result": 0.545}, {"measurement": "relative viability", "setting": "[4]; first compound 0.005 µM", "result": 0.914}, {"measurement": "relative viability", "setting": "[4]; first compound 0.01581 µM", "result": 0.88}, {"measurement": "relative viability", "setting": "[4]; first compound 0.05 µM", "result": 0.774}, {"measurement": "relative viability", "setting": "[4]; first compound 0.1581 µM", "result": 0.795}, {"measurement": "relative viability", "setting": "[4]; first compound 0.5 µM", "result": 0.759}]}
{"cell line": "ABC-1", "values": [{"measurement": "relative viability", "setting": "[1]; first compound 0.005 µM", "result": 0.631}, {"measurement": "relative viability", "setting": "[1]; first compound 0.01581 µM", "result": 0.717}, {"measurement": "relative viability", "setting": "[1]; first compound 0.05 µM", "result": 0.666}, {"measurement": "relative viability", "setting": "[1]; first compound 0.1581 µM", "result": 0.662}, {"measurement": "relative viability", "setting": "[1]; first compound 0.5 µM", "result": 1.09}, {"measurement": "relative viability", "setting": "[3]; first compound 0.005 µM", "result": 0.475}, {"measurement": "relative viability", "setting": "[3]; first compound 0.01581 µM", "result": 0.315}, {"measurement": "relative viability", "setting": "[3]; first compound 0.05 µM", "result": 0.453}, {"measurement": "relative viability", "setting": "[3]; first compound 0.1581 µM", "result": 0.429}, {"measurement": "relative viability", "setting": "[3]; first compound 0.5 µM", "result": 0.405}, {"measurement": "relative viability", "setting": "[4]; first compound 0.005 µM", "result": 1.25}, {"measurement": "relative viability", "setting": "[4]; first compound 0.01581 µM", "result": 1.01}, {"measurement": "relative viability", "setting": "[4]; first compound 0.05 µM", "result": 1.08}, {"measurement": "relative viability", "setting": "[4]; first compound 0.1581 µM", "result": 0.743}, {"measurement": "relative viability", "setting": "[4]; first compound 0.5 µM", "result": 1.21}]}
{"cell line": "COR-L23", "values": [{"measurement": "relative viability", "setting": "[2]; first compound 0.005 µM", "result": 0.22}, {"measurement": "relative viability", "setting": "[2]; first compound 0.01581 µM", "result": 0.201}, {"measurement": "relative viability", "setting": "[2]; first compound 0.05 µM", "result": 0.214}, {"measurement": "relative viability", "setting": "[2]; first compound 0.1581 µM", "result": 0.201}, {"measurement": "relative viability", "setting": "[2]; first compound 0.5 µM", "result": 0.192}, {"measurement": "relative viability", "setting": "[3]; first compound 0.005 µM", "result": 0.941}, {"measurement": "relative viability", "setting": "[3]; first compound 0.01581 µM", "result": 0.829}, {"measurement": "relative viability", "setting": "[3]; first compound 0.05 µM", "result": 0.755}, {"measurement": "relative viability", "setting": "[3]; first compound 0.1581 µM", "result": 0.739}, {"measurement": "relative viability", "setting": "[3]; first compound 0.5 µM", "result": 0.78}, {"measurement": "relative viability", "setting": "[4]; first compound 0.005 µM", "result": 1.16}, {"measurement": "relative viability", "setting": "[4]; first compound 0.01581 µM", "result": 0.981}, {"measurement": "relative viability", "setting": "[4]; first compound 0.05 µM", "result": 0.946}, {"measurement": "relative viability", "setting": "[4]; first compound 0.1581 µM", "result": 1}, {"measurement": "relative viability", "setting": "[4]; first compound 0.5 µM", "result": 1.01}]}
{"cell line": "NCI-H661", "values": [{"measurement": "relative viability", "setting": "[2]; first compound 0.005 µM", "result": 0.956}, {"measurement": "relative viability", "setting": "[2]; first compound 0.01581 µM", "result": 0.861}, {"measurement": "relative viability", "setting": "[2]; first compound 0.05 µM", "result": 0.809}, {"measurement": "relative viability", "setting": "[2]; first compound 0.1581 µM", "result": 0.616}, {"measurement": "relative viability", "setting": "[2]; first compound 0.5 µM", "result": 0.688}, {"measurement": "relative viability", "setting": "[3]; first compound 0.005 µM", "result": 0.558}, {"measurement": "relative viability", "setting": "[3]; first compound 0.01581 µM", "result": 0.458}, {"measurement": "relative viability", "setting": "[3]; first compound 0.05 µM", "result": 0.528}, {"measurement": "relative viability", "setting": "[3]; first compound 0.1581 µM", "result": 0.386}, {"measurement": "relative viability", "setting": "[3]; first compound 0.5 µM", "result": 0.367}, {"measurement": "relative viability", "setting": "[4]; first compound 0.005 µM", "result": 1.06}, {"measurement": "relative viability", "setting": "[4]; first compound 0.01581 µM", "result": 0.874}, {"measurement": "relative viability", "setting": "[4]; first compound 0.05 µM", "result": 0.738}, {"measurement": "relative viability", "setting": "[4]; first compound 0.1581 µM", "result": 0.75}, {"measurement": "relative viability", "setting": "[4]; first compound 0.5 µM", "result": 0.625}]}
